In ChEMBL document CHEMBL1201862, “PubChem BioAssay data set” (2004):
Activity calls are given as the source filed them.

Experiments:
[1] = target: T1, Short transient receptor potential channel 4 (Mus musculus, UniProt Q9QUQ5); assay: calcium entry via TRPC4 opening agents – cell-based, HEK293 TRPC4/mu-opioid, Fluo-4 calcium, dose response (AID 434937); assay type: functional
T1 sequence (Q9QUQ5 whole entry): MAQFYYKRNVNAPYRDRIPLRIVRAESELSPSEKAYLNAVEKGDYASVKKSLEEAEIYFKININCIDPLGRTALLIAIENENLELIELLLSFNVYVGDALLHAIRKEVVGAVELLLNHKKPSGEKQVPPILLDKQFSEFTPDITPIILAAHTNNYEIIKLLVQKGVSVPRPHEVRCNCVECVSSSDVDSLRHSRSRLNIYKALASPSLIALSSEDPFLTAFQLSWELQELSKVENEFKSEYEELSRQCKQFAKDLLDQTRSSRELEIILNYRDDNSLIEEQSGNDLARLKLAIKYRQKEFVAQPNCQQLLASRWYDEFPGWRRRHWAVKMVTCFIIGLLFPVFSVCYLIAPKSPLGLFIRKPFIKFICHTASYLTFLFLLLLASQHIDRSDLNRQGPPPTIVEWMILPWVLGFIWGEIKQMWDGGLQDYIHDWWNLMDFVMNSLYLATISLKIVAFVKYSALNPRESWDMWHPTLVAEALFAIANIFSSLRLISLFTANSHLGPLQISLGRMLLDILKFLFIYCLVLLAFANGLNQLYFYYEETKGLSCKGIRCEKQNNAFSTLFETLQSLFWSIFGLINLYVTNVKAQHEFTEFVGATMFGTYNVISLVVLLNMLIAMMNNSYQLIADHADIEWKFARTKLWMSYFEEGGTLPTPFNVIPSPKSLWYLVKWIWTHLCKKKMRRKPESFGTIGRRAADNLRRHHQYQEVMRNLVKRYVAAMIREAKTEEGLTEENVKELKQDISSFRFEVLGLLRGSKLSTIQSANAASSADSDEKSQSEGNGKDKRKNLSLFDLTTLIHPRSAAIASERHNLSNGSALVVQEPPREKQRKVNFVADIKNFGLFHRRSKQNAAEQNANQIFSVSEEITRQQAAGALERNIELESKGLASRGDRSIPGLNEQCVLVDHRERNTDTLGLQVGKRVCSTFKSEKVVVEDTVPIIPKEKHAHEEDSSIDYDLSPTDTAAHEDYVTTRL

[2] = target: Mu-type opioid receptor (Homo sapiens, UniProt P35372); assay: Counterscreen for agonists of heterodimerization of the mu 1 (OPRM1) and delta 1 (OPRD1) opioid receptors: Luminescence-based cell-based high throughput dose response assay to identify agonists of OPRM1 homodimerization.; assay type: functional;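 note: U2OS cells expressing OPRM1 and beta-arrestin as split beta-galactosidase partners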
[3] = target: Delta-type opioid receptor (Homo sapiens, UniProt P41143); assay: Counterscreen for agonists of heterodimerization of the mu 1 (OPRM1) and delta 1 (OPRD1) opioid receptors: Luminescence-based cell-based high throughput dose response assay to identify agonists of OPRD1 homodimerization. [Related pubchem assays (depositor defined):AID504326, AID504355, AID504692, AID504904, AID504905]; assay type: functional
[4] = target: 5-hydroxytryptamine receptor 5A (Homo sapiens, UniProt P47898); assay: Counterscreen for agonists of OPRM1-OPRD1 heterodimerization: luminescence-based cell-based high throughput dose response assay to identify agonists of 5-hydroxytryptamine (serotonin) 5A receptor (HTR5A). [Related pubchem assays (depositor defined):AID504326, AID504355, AID504692, AID504904, AID504905]; assay type: functional
[5] = target: T2, Protein RecA (Mycobacterium tuberculosis, UniProt P9WHJ3); assay: Fluorescence Cell-Free Homogeneous Dose Retest to Identify Inhibitors of RecA-Intein Splicing Activity. [Related pubchem assays (depositor defined):AID2097, AID2223, AID489010, AID492950]; assay type: functional
T2 sequence (P9WHJ3 whole entry): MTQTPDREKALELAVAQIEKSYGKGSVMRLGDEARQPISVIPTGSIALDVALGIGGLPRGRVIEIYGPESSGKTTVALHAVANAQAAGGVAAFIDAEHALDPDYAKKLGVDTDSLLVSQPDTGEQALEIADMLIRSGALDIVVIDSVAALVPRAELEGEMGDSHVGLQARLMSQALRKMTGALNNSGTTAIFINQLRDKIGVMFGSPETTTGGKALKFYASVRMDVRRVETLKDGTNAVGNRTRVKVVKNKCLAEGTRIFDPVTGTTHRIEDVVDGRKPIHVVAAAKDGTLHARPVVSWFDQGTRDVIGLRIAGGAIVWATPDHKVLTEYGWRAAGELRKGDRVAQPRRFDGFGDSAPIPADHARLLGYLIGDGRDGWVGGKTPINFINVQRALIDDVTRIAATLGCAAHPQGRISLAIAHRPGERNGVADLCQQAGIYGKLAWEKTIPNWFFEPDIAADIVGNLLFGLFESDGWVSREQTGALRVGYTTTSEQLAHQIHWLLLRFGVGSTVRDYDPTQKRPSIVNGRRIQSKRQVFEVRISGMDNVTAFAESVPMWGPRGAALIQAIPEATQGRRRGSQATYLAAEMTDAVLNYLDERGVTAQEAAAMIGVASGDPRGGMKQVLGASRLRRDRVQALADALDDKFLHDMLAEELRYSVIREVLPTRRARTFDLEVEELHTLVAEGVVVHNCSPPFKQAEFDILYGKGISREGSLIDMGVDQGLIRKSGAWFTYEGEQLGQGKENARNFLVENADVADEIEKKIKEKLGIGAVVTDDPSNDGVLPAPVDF

[6] = target: T3, G-protein coupled receptor 55 (Homo sapiens, UniProt Q9Y2T6); assay: inhibition of LPI-stimulated GPR55 beta-arrestin translocation – imaging, U2OS, beta-arrestin-GFP, LPI agonist, primary screen (AID 2013); assay type: functional;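 note: antagonist potency measured as reduced agonist-driven arrestin aggregation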
[7] = test system: HEK293; assay: membrane integrity loss in HEK cells – cell-based, fluorescence, cytotoxicity control for IDE activator project, dose response (AID 588440); assay type: functional; conditions: Homo sapiens;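 note: cytotoxicity by LDH release measuring loss of membrane integrity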
[8] = target: T4, Insulin-degrading enzyme (Homo sapiens, UniProt P14735); assay: cellular IDE activation of Abeta substrate cleavage – fluorescence polarization, HEK cells, dose response (AID 588439); assay type: functional, cell-based
T4 sequence (P14735 whole entry): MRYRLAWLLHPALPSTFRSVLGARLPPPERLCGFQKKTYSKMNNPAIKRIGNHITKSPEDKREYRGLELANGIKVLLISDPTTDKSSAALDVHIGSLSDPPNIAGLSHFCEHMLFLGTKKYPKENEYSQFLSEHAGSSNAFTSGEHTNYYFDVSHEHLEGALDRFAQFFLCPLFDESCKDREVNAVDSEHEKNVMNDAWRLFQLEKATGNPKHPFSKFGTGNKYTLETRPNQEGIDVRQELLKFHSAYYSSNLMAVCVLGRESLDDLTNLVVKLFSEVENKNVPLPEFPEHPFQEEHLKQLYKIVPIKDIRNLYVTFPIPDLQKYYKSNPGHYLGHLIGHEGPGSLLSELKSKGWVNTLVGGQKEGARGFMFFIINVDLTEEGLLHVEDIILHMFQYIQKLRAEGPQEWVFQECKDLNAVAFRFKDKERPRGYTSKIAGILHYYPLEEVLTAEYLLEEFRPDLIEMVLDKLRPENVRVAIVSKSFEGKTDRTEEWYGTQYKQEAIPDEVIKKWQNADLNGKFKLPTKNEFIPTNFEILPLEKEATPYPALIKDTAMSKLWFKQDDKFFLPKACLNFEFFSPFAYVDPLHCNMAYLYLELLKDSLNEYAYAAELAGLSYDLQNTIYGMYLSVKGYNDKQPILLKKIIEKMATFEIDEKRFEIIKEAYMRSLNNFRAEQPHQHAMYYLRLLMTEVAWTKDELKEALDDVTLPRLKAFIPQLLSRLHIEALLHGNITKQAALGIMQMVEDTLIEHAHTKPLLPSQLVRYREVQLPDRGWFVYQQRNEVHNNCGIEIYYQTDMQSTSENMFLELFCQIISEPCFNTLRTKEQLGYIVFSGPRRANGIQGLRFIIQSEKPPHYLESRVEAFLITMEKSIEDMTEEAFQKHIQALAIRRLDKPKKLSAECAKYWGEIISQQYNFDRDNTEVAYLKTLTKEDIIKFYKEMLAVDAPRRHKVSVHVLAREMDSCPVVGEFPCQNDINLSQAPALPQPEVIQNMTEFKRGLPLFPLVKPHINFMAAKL

[9] = DRD fibroblast viability loss – cell-based, non-viral oncogenic, luminescence, dose response (AID 1934); assay type: functional; conditions: Homo sapiens
[10] = test system: BJ; assay: growth inhibition of engineered Ras-driven BJ cells – cell-based, alamar blue fluorescence, cherrypicked samples, dose response (AID 2631); assay type: functional; conditions: Homo sapiens;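 note: confirmatory dose-response assay in RAS-dependent BJ fibroblasts engineered with TERT, LT and ST, with cytotoxicity read by fluorescence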
[11] = test system: HEK293; assay: cells; conditions: Homo sapiens
[12] = test system: BJ; assay: cells; assay type: functional, cell-based; conditions: Homo sapiens
[13] = target: T4, Insulin-degrading enzyme; assay: recombinant IDE activation, cell-free – biochemical, fluorescence polarization, counter-screen for IDE activator project, dose response (AID 588681)
[14] = test system: BJ; assay: BJ-TERT fibroblast viability loss – cell-based, RAS-independent, luminescence, dose response (AID 1933); assay type: functional; conditions: Homo sapiens
[15] = target: T5, Replicative DNA helicase DnaB (Mycobacterium tuberculosis, UniProt P9WMR3); assay: DnaB intein splicing inhibitors, dose response, biochemical, cell-free fluorescence (AID 449749); assay type: functional
T5 sequence (P9WMR3 whole entry): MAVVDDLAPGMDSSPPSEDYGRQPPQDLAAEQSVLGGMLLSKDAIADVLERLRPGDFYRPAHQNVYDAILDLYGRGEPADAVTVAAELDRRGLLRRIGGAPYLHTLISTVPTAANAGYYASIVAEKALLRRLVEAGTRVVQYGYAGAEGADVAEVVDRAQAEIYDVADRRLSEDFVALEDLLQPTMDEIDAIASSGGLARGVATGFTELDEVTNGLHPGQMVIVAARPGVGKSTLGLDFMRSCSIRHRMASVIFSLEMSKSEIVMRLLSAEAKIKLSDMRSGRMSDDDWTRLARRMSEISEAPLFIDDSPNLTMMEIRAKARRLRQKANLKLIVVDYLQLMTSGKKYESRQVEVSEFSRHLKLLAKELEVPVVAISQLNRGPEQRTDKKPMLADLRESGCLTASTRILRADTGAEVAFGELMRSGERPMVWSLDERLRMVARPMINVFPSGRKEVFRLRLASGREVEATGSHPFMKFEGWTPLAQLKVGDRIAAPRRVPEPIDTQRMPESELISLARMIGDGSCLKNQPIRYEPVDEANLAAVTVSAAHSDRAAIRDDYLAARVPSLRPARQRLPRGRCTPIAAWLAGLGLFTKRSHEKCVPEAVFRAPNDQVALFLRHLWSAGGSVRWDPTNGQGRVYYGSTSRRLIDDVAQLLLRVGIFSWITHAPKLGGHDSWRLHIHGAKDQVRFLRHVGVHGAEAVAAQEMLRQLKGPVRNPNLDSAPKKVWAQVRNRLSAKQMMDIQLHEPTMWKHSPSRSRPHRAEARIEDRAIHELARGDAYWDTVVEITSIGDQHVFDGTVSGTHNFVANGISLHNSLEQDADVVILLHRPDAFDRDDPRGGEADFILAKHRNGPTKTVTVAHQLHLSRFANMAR

[16] = test system: BJ; assay: BJ-TERT-LT-ST fibroblast viability loss – cell-based, RAS-independent, luminescence, dose response (AID 1935); assay type: functional; conditions: Homo sapiens;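 note: BJ fibroblasts immortalized with TERT plus LT and ST oncogenes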
[17] = test system: HEK293; assay: cells; conditions: Homo sapiens; remark: listed apart in the source
[18] = target: T3, G-protein coupled receptor 55; assay: selective activators of receptor GPR55 – imaging, U2OS cells, beta-arrestin-GFP redistribution, primary screen (AID 1961); assay type: functional
[19] = test system: Vero; assay: cells; assay type: functional; conditions: Chlorocebus sabaeus
[20] = test system: HEK293; assay: optical interference in Abeta FP readout, dose response, artefact control for IDE activator project, biochemical, fluorescence polarization (AID 588442); assay type: functional, cell-based; conditions: Homo sapiens
[21] = test system: Escherichia coli; assay: microbe, parasite or virus in culture
[22] = test system: A-375; assay: proliferation inhibition in MITF-low A375 cells – cell-based, cherry-pick samples, set 2, counter-screen for MITF modulator project, dose response (AID 540335); assay type: functional; conditions: Homo sapiens
[23] = test system: A-375; assay: MITF: Counter assay: A375 proliferation Measured in Cell-Based System Using Plate Reader - 2084-03_Inhibitor_Dose_DryPowder_Activity. [Related pubchem assays (depositor defined):AID488944]; assay type: functional; conditions: Homo sapiens

T3 sequence (Q9Y2T6 whole entry): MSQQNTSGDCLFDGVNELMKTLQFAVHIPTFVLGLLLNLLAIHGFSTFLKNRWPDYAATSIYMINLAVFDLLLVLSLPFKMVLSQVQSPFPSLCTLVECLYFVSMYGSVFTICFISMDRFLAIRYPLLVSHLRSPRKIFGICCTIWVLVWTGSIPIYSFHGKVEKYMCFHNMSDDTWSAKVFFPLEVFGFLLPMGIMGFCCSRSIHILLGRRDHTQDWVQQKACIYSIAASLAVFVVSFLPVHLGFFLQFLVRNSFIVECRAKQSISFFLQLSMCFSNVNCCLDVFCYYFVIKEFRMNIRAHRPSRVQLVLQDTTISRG
Sequence of Delta-type opioid receptor (P41143 whole entry): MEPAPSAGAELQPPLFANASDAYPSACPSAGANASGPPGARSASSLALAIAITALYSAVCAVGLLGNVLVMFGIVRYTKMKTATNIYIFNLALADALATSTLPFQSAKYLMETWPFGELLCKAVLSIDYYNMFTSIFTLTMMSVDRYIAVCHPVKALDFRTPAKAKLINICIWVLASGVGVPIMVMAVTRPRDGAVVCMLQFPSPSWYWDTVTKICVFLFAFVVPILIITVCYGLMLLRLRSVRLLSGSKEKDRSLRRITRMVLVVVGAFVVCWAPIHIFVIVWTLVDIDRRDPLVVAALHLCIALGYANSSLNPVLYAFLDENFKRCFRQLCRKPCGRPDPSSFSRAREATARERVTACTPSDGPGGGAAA
Sequence of 5-hydroxytryptamine receptor 5A (P47898 whole entry): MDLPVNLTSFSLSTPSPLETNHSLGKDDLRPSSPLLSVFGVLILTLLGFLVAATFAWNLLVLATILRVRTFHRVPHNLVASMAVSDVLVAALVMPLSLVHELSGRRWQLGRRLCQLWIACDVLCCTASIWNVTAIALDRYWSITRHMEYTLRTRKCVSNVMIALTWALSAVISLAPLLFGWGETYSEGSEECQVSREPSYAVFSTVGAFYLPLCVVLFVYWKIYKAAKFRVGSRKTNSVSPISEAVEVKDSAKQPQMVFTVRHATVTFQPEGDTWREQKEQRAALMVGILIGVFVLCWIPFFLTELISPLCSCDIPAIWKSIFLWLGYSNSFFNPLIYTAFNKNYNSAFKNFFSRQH
Sequence of Mu-type opioid receptor (P35372 whole entry): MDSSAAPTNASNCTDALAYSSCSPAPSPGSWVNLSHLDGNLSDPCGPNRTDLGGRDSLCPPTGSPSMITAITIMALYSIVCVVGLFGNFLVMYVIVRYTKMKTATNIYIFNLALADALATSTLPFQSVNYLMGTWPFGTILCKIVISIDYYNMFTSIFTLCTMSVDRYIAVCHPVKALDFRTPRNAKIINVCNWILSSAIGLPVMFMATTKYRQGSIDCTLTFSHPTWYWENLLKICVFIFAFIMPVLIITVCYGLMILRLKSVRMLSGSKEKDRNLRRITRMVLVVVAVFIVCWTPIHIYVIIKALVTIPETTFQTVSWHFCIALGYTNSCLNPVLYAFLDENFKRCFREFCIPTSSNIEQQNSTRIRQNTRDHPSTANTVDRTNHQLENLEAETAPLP

## COC(=O)NCC(c1ccc2c(c1)OCO2)N1CCN(c2ccccc2)CC1 (stereo not drawn)
[1]
  EC50: 0.105 µM (active)
[2]
  EC50: 17.3 µM (inactive)
[3]
  EC50: > 92.4 µM (inactive)
[4]
  EC50: > 92.4 µM (inactive)

## CCOC(=O)c1c(CSC(=N)N)n(-c2ccc(C)cc2)c2cc(Br)c(OC(C)=O)cc12
[5]
  EC50: 4.25 µM (active)
[6]
  IC50: 5.03 µM (active)
[7]
  IC50: 9.83 µM (active)
[8]
  EC50: > 54.7 µM (inactive)
[9]
  EC50: 9.02 µM (active)
[10]
  EC50: > 133 µM (inactive)
[11]
  EC50: > 59.7 µM (inactive)
[12]
  EC50: 12 µM (inconclusive)
[13]
  EC50: > 54.7 µM (inactive)
[14]
  EC50: 5.98 µM (active)
[15]
  AC50: 4.79 µM (active)
[16]
  EC50: 5.6 µM (active)
[17]
  EC50: > 59.7 µM (inactive)
[18]
  EC50: > 32 µM (inactive)
[19]
  CC50: > 25 µM (active)
[20]
  EC50: > 54.7 µM (inactive)

## c1ccc2c(OCCCN3CCCCCC3)cccc2c1
[21]
  AC50: 19.6 µM (active)

## CCOc1ccc(/N=C(\C)C2=C(O)c3ccccc3C2=O)cc1
[22]
  AC50: > 35 µM (active)
[23]
  AC50: > 35 µM (active)
